The numbers were not newly measured in patent publication US20150010635A1, “CONTROLLED RELEASE PARTICLES, WOOD TREATMENT AGENT, AND PRODUCING METHOD THEREOF” (Japan EnviroChemicals, Ltd., priority 2011, published 2015), which cites them from elsewhere.

SMILES strings stand for the structures. Read-outs that look alike come from different tables or passages of the source.

`CCN(CC)C(=O)c1cccc(C)c1` [DEET, N,N-diethyl-m-toluamide]: the water solubility (room temperature) is 990 ppm.

For `CC1(C)C(C=C(Cl)Cl)C1C(=O)OCc1cccc(Oc2ccccc2)c1` (stereo not drawn) [Permethrin, 3-phenoxybenzyl(1RS,3RS;1RS,3SR)-3-(2,2-dichlorovinyl)-2,2-dimethylcyclopropanecarboxylate], the water solubility is given as 6 ppb.

`CCOc1ccc(C(C)(C)COCc2cccc(Oc3ccccc3)c2)cc1` [Ethofenprox, 2-(4-ethoxyphenyl)-2-methylpropyl-3-phenoxybenzylether]: the water solubility is listed as 22.5 ppb.

Regarding `CCCC1COC(Cn2cncn2)(c2ccc(Cl)cc2Cl)O1` (stereo not shown) [Propiconazole, 1-[2-(2,4-dichlorophenyl)-4-n-propyl-1,3-dioxolane-2-ylmethyl]-1H-1,2,4-triazole], under “room temperature”, the water solubility is recorded as 110 ppm.
